Test results reported in patent US20230321251A1, “LIPOSOME FORMULATION CONTAINING ANTIBACTERIAL AGENT” (priority 2020, published 2023).
In brackets after ≈: the same amount, converted by molar mass. Several values for one entry are separate records, joined by “and”; a condition that tells them apart may be missing. Equal values may be shown once.

Tests used:
[1] = Plasma concentration of active ingredient after intravenous administration (PK parameters)
Protocol: (2) Plasma Concentration of Active Ingredient after Administration of Liposome Formulation
1) Animals used: ICR mice were used.
2) Breeding conditions: The mice were allowed to freely take chow and sterilized tap water.
3) Dose and grouping setting: A predetermined dose was intravenously administered. The intravenous dose was 5 mg/kg (n=3).
4) Formulation of dosing solution: The dosing solution was administered as a 5% glucose solution.
5) Administration method: Administration was performed via the tail vein through a syringe with an injection needle.
6) Evaluation item: Blood was collected over time, and the plasma concentration of the compound of the present invention was measured using LC/MS/MS.
7) Parameter analysis: For the plasma concentration of the compound of the present invention, area under the plasma concentration-time curve (AUC), systemic clearance (CLtot), elimination half-life (t½), and steady state distribution volume (Vdss) of the compound of the present invention were calculated by non-compartmental model analysis.

[2] = Tissue distribution test (plasma, liver, kidney, lung); conditions: ICR mice; for Kidney Concentration / Liver Concentration / Lung Concentration / Plasma Concentration / Kidney Kp / Liver Kp / Lung Kp: iv 5 mg/kg; for concentration at 0.5 h / concentration at 2 h / concentration at 24 h / Kp at 0.5 h / Kp at 2 h / Kp at 24 h: ICR, mouse, in vivo, iv, 5 mg/kg
Protocol: (3) Tissue Distribution of Active Ingredient after Administration of Liposome Formulation
(Tissue Distribution Test)
The compound of the present invention was intravenously administered at a dose of 5 mg/kg to ICR mice. […] Then, the liver, kidney, and lung were removed, and a 25% homogenate was prepared with distilled water. The obtained blood was centrifuged, and plasma was then obtained. Thereafter, each sample was measured using LC/MS/MS. The concentration value ratio (each tissue/plasma) obtained was used as a tissue Kp value.

S. aureus ATCC700787 = test: In vitro antibacterial activity (MIC), agar plate dilution; type: cell-based, Staphylococcus aureus
Protocol: (§1) A minimum inhibitory concentration was measured as in vitro antibacterial activity. The minimum inhibitory concentration (MIC: μg/ml) was measured according to the standard method of Japanese Society of Chemotherapy, by an agar plate dilution method using 1000 cfu/spot as an inoculum amount and a susceptibility disk medium as a test medium.
(§2) In the tables, a unit of a numerical value of inhibitory activity is μg/ml. In addition, in the tables, S. aureus represents Staphylococcus aureus and E. faecalis represents Gram-positive group D streptococci (enterococci) that are resident in a normal bacterial flora of a human intestinal tract, and can be causative bacteria of endocarditis and the like after surgery.

S. aureus VRS1 = test: as above; type: cell-based, Staphylococcus aureus; conditions: for minimum inhibitory concentration (MIC): S. aureus VRS1, 1000 cfu/spot
Protocol: as §1, §2

E. faecalis SR1004 = test: as above; type: cell-based; conditions: for minimum inhibitory concentration (MIC): E. faecalis SR1004, 1000 cfu/spot
Protocol: as §1, §2

E. faecalis SR7914 = test: as above; type: cell-based; conditions: for minimum inhibitory concentration (MIC): E. faecalis SR7914, 1000 cfu/spot
Protocol: as §1, §2

E. faecium SR7940 = test: as above; type: cell-based; conditions: for minimum inhibitory concentration (MIC): E. faecium SR7940, 1000 cfu/spot
Protocol: as §1, §2

E. faecium SRM1101 = test: as above; type: cell-based
Protocol: as §1, §2

S. aureus ATCC25923 = test: as above; type: cell-based, Staphylococcus aureus
Protocol: as §1, §2

[3] = ICR mice, intravenous 5 mg/kg, plasma
[4] = ICR, mouse, in vivo, iv, 5 mg/kg

CN[C@H](CC(C)C)C(=O)N[C@H]1C(=O)N[C@@H](CC(N)=O)C(=O)N[C@H]2C(=O)N[C@H]3C(=O)N[C@H](C(=O)N[C@H](C(=O)O)c4cc(O)cc(O)c4-c4cc3ccc4O)[C@H](O[C@H]3C[C@](C)(N)[C@@H](O)[C@H](C)O3)c3ccc(c(Cl)c3)Oc3cc2cc(c3O[C@@H]2O[C@H](CO)[C@@H](O)[C@H](O)[C@H]2O[C@H]2C[C@](C)(NCc3ccc(-c4ccc(Cl)cc4)cc3)[C@@H](O)[C@H](C)O2)Oc2ccc(cc2Cl)[C@H]1O [Oritavancin drug substance, oritavancin]
CL tot [1, 3]: 0.989 ± 0.049 mL/min/kg
T1/2 [1, 3]: 2.2 ± 1.3 h
Kidney Concentration ([2]; 0.5 hour after administration): 10300 ± 1090 ng/mL
Liver Concentration ([2]; 0.5 hour after administration): 14800 ± 1230 ng/mL
Lung Concentration ([2]; 0.5 hour after administration): 15100 ± 563 ng/mL
Plasma Concentration ([2]; 0.5 hour after administration): 34400 ± 4550 ng/mL
Kidney Concentration ([2]; 2 hours after administration): 8720 ± 538 ng/mL
Liver Concentration ([2]; 2 hours after administration): 24900 ± 1400 ng/mL
Lung Concentration ([2]; 2 hours after administration): 10100 ± 1010 ng/mL
Plasma Concentration ([2]; 2 hours after administration): 14900 ± 1710 ng/mL
Kidney Concentration ([2]; 24 hours after administration): 4090 ± 462 ng/mL
Liver Concentration ([2]; 24 hours after administration): 38500 ± 2780 ng/mL
Lung Concentration ([2]; 24 hours after administration): 3790 ± 388 ng/mL
Plasma Concentration ([2]; 24 hours after administration): 63.9 ± 12.0 ng/mL
Kidney Kp ([2]; kidney/plasma concentration ratio, 0.5 hour): 0.30 ± 0.04
Kidney Kp ([2]; kidney/plasma concentration ratio, 2 hours): 0.59 ± 0.05
Kidney Kp ([2]; kidney/plasma concentration ratio, 24 hours): 66.12 ± 17.05
Liver Kp ([2]; liver/plasma concentration ratio, 0.5 hour): 0.44 ± 0.08
Liver Kp ([2]; liver/plasma concentration ratio, 2 hours): 1.68 ± 0.10
Liver Kp ([2]; liver/plasma concentration ratio, 24 hours): 611.35 ± 72.9
Lung Kp ([2]; lung/plasma concentration ratio, 0.5 hour): 0.44 ± 0.07
Lung Kp ([2]; lung/plasma concentration ratio, 2 hours): 0.68 ± 0.09
Lung Kp ([2]; lung/plasma concentration ratio, 24 hours): 61.19 ± 15.12
minimum inhibitory concentration (MIC) (S. aureus ATCC700787; S. aureus ATCC700787, 1000 cfu/spot): 4 µg/mL and 2 µg/mL
minimum inhibitory concentration (MIC) (S. aureus VRS1): 4 µg/mL and 2 µg/mL
minimum inhibitory concentration (MIC) (E. faecalis SR1004): 2 µg/mL and 1 µg/mL
minimum inhibitory concentration (MIC) (E. faecalis SR7914): 2 µg/mL and 1 µg/mL
minimum inhibitory concentration (MIC) (E. faecium SR7940): 2 µg/mL (≈ 1.12 µM)
minimum inhibitory concentration (MIC) (E. faecium SRM1101; E. faecium SRM1101, 1000 cfu/spot): 2 µg/mL and 4 µg/mL

CCCCCCCCCCNCCN[C@@]1(C)C[C@H](O[C@H]2[C@H](Oc3c4cc5cc3Oc3ccc(cc3Cl)[C@@H](O)[C@@H]3NC(=O)[C@H](NC(=O)[C@@H]5NC(=O)[C@H](CC(N)=O)NC(=O)C(NC(=O)[C@@H](CC(C)C)NC)[C@H](O)c5ccc(c(Cl)c5)O4)c4ccc(O)c(c4)-c4c(cc(O)c(CNCP(=O)(O)O)c4O)[C@@H](C(=O)O)NC3=O)O[C@H](CO)[C@@H](O)[C@@H]2O)O[C@@H](C)[C@H]1O (some centres unmarked) [Telavancin drug substance, telavancin]
AUC(0-inf) [1, 4]: 57200 ± 12800 ng·h/mL
clearance [1, 4]: 1.52 ± 0.32 mL/min/kg
half-life [1, 4]: 2.7 ± 2.7 h
concentration at 0.5 h ([2]; Kidney Concentration, 0.5 hour after administration): 19000 ± 4110 ng/mL
concentration at 2 h ([2]; Kidney Concentration, 2 hours after administration): 12700 ± 2470 ng/mL
concentration at 24 h ([2]; Kidney Concentration, 24 hours after administration): 5930 ± 1600 ng/mL
Kp at 0.5 h ([2]; Kidney Kp, kidney/plasma concentration ratio, 0.5 hour): 1.05 ± 0.23
Kp at 2 h ([2]; Kidney Kp, kidney/plasma concentration ratio, 2 hours): 1.64 ± 0.12
Kp at 24 h ([2]; Kidney Kp, kidney/plasma concentration ratio, 24 hours): 49.9
concentration at 0.5 h ([2]; Liver Concentration, 0.5 hour after administration): 3780 ± 201 ng/mL
concentration at 2 h ([2]; Liver Concentration, 2 hours after administration): 4050 ± 256 ng/mL
concentration at 24 h ([2]; Liver Concentration, 24 hours after administration): 2340 ± 465 ng/mL
Kp at 0.5 h ([2]; Liver Kp, liver/plasma concentration ratio, 0.5 hour): 0.21 ± 0.01
Kp at 2 h ([2]; Liver Kp, liver/plasma concentration ratio, 2 hours): 0.53 ± 0.05
Kp at 24 h ([2]; Liver Kp, liver/plasma concentration ratio, 24 hours): 17.2
concentration at 0.5 h ([2]; Lung Concentration, 0.5 hour after administration): 5860 ± 208 ng/mL
concentration at 2 h ([2]; Lung Concentration, 2 hours after administration): 2820 ± 162 ng/mL
concentration at 24 h ([2]; Lung Concentration, 24 hours after administration): 736 ± 158 ng/mL
Kp at 0.5 h ([2]; Lung Kp, lung/plasma concentration ratio, 0.5 hour): 0.32 ± 0.03
Kp at 2 h ([2]; Lung Kp, lung/plasma concentration ratio, 2 hours): 0.37 ± 0.04
Kp at 24 h ([2]; Lung Kp, lung/plasma concentration ratio, 24 hours): 5.75
concentration at 0.5 h ([2]; Plasma Concentration, 0.5 hour after administration): 18200 ± 627 ng/mL
concentration at 2 h ([2]; Plasma Concentration, 2 hours after administration): 7700 ± 977 ng/mL
concentration at 24 h ([2]; Plasma Concentration, 24 hours after administration): 51.9 ± 89.9 ng/mL
minimum inhibitory concentration (MIC) (S. aureus ATCC25923; S. aureus ATCC25923, 1000 cfu/spot): 0.25 µg/mL (≈ 0.142 µM)
MIC (S. aureus ATCC25923; Staphylococcus aureus, ATCC25923, read-out: minimum inhibitory concentration (MIC), S. aureus ATCC25923, 1000 cfu/spot): 0.5 µg/mL (≈ 0.285 µM)
MIC (S. aureus ATCC700787; Staphylococcus aureus, ATCC700787, read-out: minimum inhibitory concentration (MIC)): 1 µg/mL (≈ 0.57 µM)
minimum inhibitory concentration (MIC) (S. aureus VRS1): 2 µg/mL (≈ 1.14 µM)
MIC (S. aureus VRS1; Staphylococcus aureus, VRS1, read-out: minimum inhibitory concentration (MIC), S. aureus VRS1, 1000 cfu/spot): 4 µg/mL (≈ 2.28 µM)
minimum inhibitory concentration (MIC) (E. faecalis SR1004): 0.5 µg/mL (≈ 0.285 µM)
MIC (E. faecalis SR1004; Enterococcus faecalis, SR1004, read-out: minimum inhibitory concentration (MIC), E. faecalis SR1004, 1000 cfu/spot): 1 µg/mL (≈ 0.57 µM)
minimum inhibitory concentration (MIC) (E. faecalis SR7914): 2 µg/mL (≈ 1.14 µM)
MIC (E. faecalis SR7914; Enterococcus faecalis, SR7914, read-out: minimum inhibitory concentration (MIC), E. faecalis SR7914, 1000 cfu/spot): 4 µg/mL (≈ 2.28 µM)
minimum inhibitory concentration (MIC) (E. faecium SR7940): 2 µg/mL (≈ 1.14 µM)
MIC (E. faecium SR7940; Enterococcus faecium, SR7940, read-out: minimum inhibitory concentration (MIC), E. faecium SR7940, 1000 cfu/spot): 4 µg/mL (≈ 2.28 µM)
MIC (E. faecium SRM1101; Enterococcus faecium, SRM1101, read-out: minimum inhibitory concentration (MIC)): 4 µg/mL (≈ 2.28 µM)
